Here are results for seven compounds from PubChem BioAssay (NCI).

Several values for one entry are separate records, joined by “and”; a condition that tells them apart may be missing. Equal entries are not always repeated.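 Interpolation was linear, between the two tested concentrations surrounding the appropriate level; five concentrations were tested over 48 hours in 96-well plates. GI50: concentration for 50% inhibition of growth. TGI marks complete inhibition of growth.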

Test systems include A498 renal; CAKI-1 renal; DU-145 prostate; HL-60(TB) leukemia; OVCAR-8 ovarian; PC-3 prostate; SF-295 CNS; SK-OV-3 ovarian; SW-620 colon; UACC-62 melanoma.
Common to all, as to assay: DTP human tumour cell line panel, 48 h

The term GI50 denotes the concentration at which growth is held to half of that of the control. A word on the TGI: it is the concentration at which net growth stops. Read a high TGI as lower sensitivity of the cells. In the case of `CN1CCN(c2cc3nc4ccccc4n(-c4ccc(Cl)cc4)c-3cc2=N)CC1`, the GI50 with A498 renal was more than 100 µM; in the assay on CAKI-1 renal, 24.6 µM; in the assay on DU-145 prostate, 37.8 µM; with OVCAR-8 ovarian, 13.7 µM; in the assay with PC-3 prostate it was 16.1 µM; in the assay on SF-295 CNS it was 23.4 µM. In addition, the GI50 in the assay with SK-OV-3 ovarian was more than 100 µM; in the assay on SW-620 colon, 23.9 µM; with UACC-62 melanoma, 22.9 µM. The TGI in the assay with A498 renal was more than 100 µM; in the assay with CAKI-1 renal, 82 µM; with DU-145 prostate it was more than 100 µM; in the assay on HL-60(TB) leukemia, 4.35 µM; in the assay on OVCAR-8 ovarian it was 38.4 µM; in the assay on PC-3 prostate, 86.8 µM. The TGI with SF-295 CNS was 59.5 µM; in the assay on SK-OV-3 ovarian, more than 100 µM; in the assay on SW-620 colon, more than 100 µM; in the assay on UACC-62 melanoma it was 54.8 µM.

As to `Nc1n[nH]c2ccc([C@@H]3Nc4cc5[nH]ncc5cc4[C@H]4C5CCC(C5)[C@@H]34)cc12` (some centres undefined), the GI50 was 0.174 µM with A498 renal; 0.355 µM with CAKI-1 renal; 0.391 µM in the assay on DU-145 prostate; 0.298 µM with HL-60(TB) leukemia; 0.511 µM in the assay with OVCAR-8 ovarian; 0.365 µM with PC-3 prostate. The GI50 is 0.257 µM with SF-295 CNS, 16 µM in the assay with SK-OV-3 ovarian, 0.392 µM in the assay on SW-620 colon and 0.272 µM in the assay on UACC-62 melanoma. The TGI in the assay on A498 renal is 0.822 µM; with CAKI-1 renal, more than 39.2 µM; with DU-145 prostate, more than 100 µM; in the assay with HL-60(TB) leukemia, 2.24 µM; in the assay on OVCAR-8 ovarian it was more than 100 µM; in the assay on PC-3 prostate, more than 41.9 µM. In addition, the TGI in the assay on SF-295 CNS was 19.2 µM; in the assay with SK-OV-3 ovarian, more than 100 µM; in the assay on SW-620 colon it was more than 100 µM; in the assay with UACC-62 melanoma it was 17.4 µM.

For the compound `COc1ccc2c(c1)C(=O)c1c-2c(N2CCNCC2)nc2ccccc12`, the GI50 with A498 renal was 7.4 µM; with CAKI-1 renal it was 11.5 µM; in the assay with DU-145 prostate, 1.89 µM; in the assay with HL-60(TB) leukemia it was 1.8 µM; with OVCAR-8 ovarian, 5.81 µM; with PC-3 prostate it was 0.267 µM. Besides, the GI50 was 10.4 µM in the assay on SF-295 CNS, 6 µM in the assay with SK-OV-3 ovarian, 1.32 µM in the assay with SW-620 colon and 3.55 µM in the assay on UACC-62 melanoma. In addition, the TGI worked out at 21.1 µM with A498 renal; 30.3 µM in the assay on CAKI-1 renal; 4.73 µM in the assay with DU-145 prostate; 5.16 µM in the assay on HL-60(TB) leukemia; 23.4 µM with OVCAR-8 ovarian; 8.67 µM in the assay on PC-3 prostate. The TGI is 27.4 µM with SF-295 CNS, 19.2 µM in the assay with SK-OV-3 ovarian, 2.6 µM in the assay on SW-620 colon and 12.1 µM with UACC-62 melanoma.

In the case of `COc1cccc(C2C(C#N)=C(N)Oc3c2ccc2ccccc32)c1` (centres undefined), the GI50 in the assay on A498 renal is 0.0108 µM; in the assay with CAKI-1 renal, less than 0.01 µM; with DU-145 prostate it was 0.034 µM; in the assay with HL-60(TB) leukemia, 0.0244 µM; in the assay with OVCAR-8 ovarian it was 0.0346 µM; in the assay with PC-3 prostate, 0.0119 µM. Further, the GI50 is less than 0.01 µM in the assay with SF-295 CNS, 0.0431 µM in the assay on SK-OV-3 ovarian, less than 0.015 µM with SW-620 colon and less than 0.01 µM in the assay on UACC-62 melanoma. Further, the TGI with A498 renal came to 13.6 µM; in the assay on CAKI-1 renal it was 14 µM; in the assay on DU-145 prostate, 1.43 µM; in the assay with HL-60(TB) leukemia it was 0.0629 µM; with OVCAR-8 ovarian it was 19.2 µM; with PC-3 prostate, 15.5 µM. Moreover, the TGI with SF-295 CNS amounted to 10.7 µM; in the assay on SK-OV-3 ovarian it was 18.3 µM; in the assay with SW-620 colon, 17.8 µM; in the assay on UACC-62 melanoma it was 19.8 µM.

Take `O=C(NN1C(=O)CSC1c1ccc(F)cc1)C(O)c1ccccc1` (centres undefined): the GI50 was more than 100 µM with A498 renal; more than 100 µM with CAKI-1 renal; more than 100 µM with DU-145 prostate; 91.5 µM in the assay with HL-60(TB) leukemia; more than 100 µM in the assay on OVCAR-8 ovarian; 76.8 µM with PC-3 prostate. Also, the GI50 is more than 100 µM with SF-295 CNS, more than 100 µM in the assay on SK-OV-3 ovarian, more than 100 µM in the assay on SW-620 colon and 80.2 µM with UACC-62 melanoma. The TGI with A498 renal, in the assay on CAKI-1 renal, in the assay with DU-145 prostate, in the assay on HL-60(TB) leukemia, with OVCAR-8 ovarian and in the assay on PC-3 prostate was more than 100 µM throughout. Moreover, the TGI in the assay on SF-295 CNS, in the assay with SK-OV-3 ovarian, in the assay with SW-620 colon and in the assay with UACC-62 melanoma was more than 100 µM throughout.

Regarding `NC(=O)c1cccc(-c2cc(C(N)=O)ccc2Cl)c1`, the GI50 in the assay on A498 renal is 3.03 µM; in the assay on CAKI-1 renal, 2.66 µM; in the assay with DU-145 prostate, 3.78 µM; in the assay on HL-60(TB) leukemia, 2.42 µM; with OVCAR-8 ovarian, 4.32 µM; in the assay on PC-3 prostate, 3.03 µM. For the same compound, the GI50 in the assay with SF-295 CNS is 2.41 µM; with SK-OV-3 ovarian, 5.63 µM; in the assay on SW-620 colon it was 2.14 µM; in the assay with UACC-62 melanoma, 1.77 µM. In addition, the TGI with A498 renal was 15.3 µM; in the assay with CAKI-1 renal it was more than 100 µM; in the assay with DU-145 prostate it was more than 100 µM; in the assay on HL-60(TB) leukemia it was 5.91 µM; in the assay on OVCAR-8 ovarian, more than 100 µM; with PC-3 prostate, 40.9 µM. Further, the TGI is 21.2 µM in the assay on SF-295 CNS, more than 100 µM in the assay with SK-OV-3 ovarian, more than 100 µM in the assay on SW-620 colon and 56 µM with UACC-62 melanoma.

With `CCN(CC)C(=S)SSC(=S)N(CC)CC`, the GI50 in the assay on A498 renal was 49.9 µM and 109 µM; with CAKI-1 renal it was 12.6 µM and 20.8 µM; with DU-145 prostate, 24.5 µM and 31.7 µM; in the assay on HL-60(TB) leukemia, 25.9 µM and 22.4 µM; with OVCAR-8 ovarian, 18.8 µM and 15.8 µM; in the assay on PC-3 prostate, 15.7 µM and 23.2 µM. Moreover, the GI50 with SF-295 CNS is 11.4 µM and 50.8 µM; with SK-OV-3 ovarian, 49.4 µM and 58.9 µM; in the assay on SW-620 colon, 16.1 µM and 17 µM; in the assay on UACC-62 melanoma it was 15.2 µM and 18.1 µM. Moreover, the TGI with A498 renal is 228 µM; in the assay with CAKI-1 renal it was 26.3 µM and 77.9 µM; with DU-145 prostate, > 59.8 µM and 133 µM; with HL-60(TB) leukemia it was 56.3 µM and 52.5 µM; with OVCAR-8 ovarian it was 50.7 µM and 33.5 µM; with PC-3 prostate, 41.2 µM and 72 µM. For the same compound, the TGI is > 50.2 µM and 278 µM in the assay with SF-295 CNS; 173 µM in the assay on SK-OV-3 ovarian; 30.4 µM and 32.6 µM in the assay with SW-620 colon; 30.4 µM and 44.5 µM in the assay with UACC-62 melanoma.
